Assay results from US11382328B2, “Rapid drug discovery methods for pathogen inactivation” (priority 2019, dated 2022).
Where “and” joins values, the source holds several entries; their conditions need not be identical. Equal entries are not always repeated. Where two headings read alike, the source gives them in different places.

System: E. coli strain W3110
Assay: Synergy assays: Biolog chemical sensitivity panels with Group IB metal, coefficient of drug interaction (CDI) from relative growth
Format: cell-based
Details: for CDI (coefficient of drug interaction), copper mixed with biocide: Copper (mM) section
[1] = Copper (mM), 1st of 3 copper concentrations (head line not shown), biocide concentration 1 of 4, E. coli
[2] = Copper (mM), 1st of 3 copper concentrations (head line not shown), biocide concentration 2 of 4, E. coli
[3] = Copper (mM), 1st of 3 copper concentrations (head line not shown), biocide concentration 3 of 4, E. coli
[4] = Copper (mM), 1st of 3 copper concentrations (head line not shown), biocide concentration 4 of 4, E. coli
[5] = Copper (mM), 2nd of 3 copper concentrations (head line not shown), biocide concentration 1 of 4, E. coli
[6] = Copper (mM), 2nd of 3 copper concentrations (head line not shown), biocide concentration 2 of 4, E. coli
[7] = Copper (mM), 2nd of 3 copper concentrations (head line not shown), biocide concentration 3 of 4, E. coli
[8] = Copper (mM), 2nd of 3 copper concentrations (head line not shown), biocide concentration 4 of 4, E. coli
[9] = Copper (mM), 3rd of 3 copper concentrations (head line not shown), biocide concentration 1 of 4, E. coli
[10] = Copper (mM), 3rd of 3 copper concentrations (head line not shown), biocide concentration 2 of 4, E. coli
[11] = Copper (mM), 3rd of 3 copper concentrations (head line not shown), biocide concentration 3 of 4, E. coli
[12] = Copper (mM), 3rd of 3 copper concentrations (head line not shown), biocide concentration 4 of 4, E. coli
[13] = Gold (μM), first of 3 gold concentrations, biocide concentration 4 of 4
[14] = Gold (μM), second of 3 gold concentrations, biocide concentration 4 of 4
[15] = Gold (μM), third of 3 gold concentrations, biocide concentration 4 of 4
[16] = Silver 0.5 μM, biocide concentration 1 of 4
[17] = Silver 0.5 μM, biocide concentration 2 of 4
[18] = Silver 0.5 μM, biocide concentration 3 of 4
[19] = Silver 0.5 μM, biocide concentration 4 of 4
[20] = Silver 1.0 μM, biocide concentration 1 of 4
[21] = Silver 1.0 μM, biocide concentration 2 of 4
[22] = Silver 1.0 μM, biocide concentration 3 of 4
[23] = Silver 1.0 μM, biocide concentration 4 of 4
[24] = Silver 5.0 μM, biocide concentration 1 of 4
[25] = Silver 5.0 μM, biocide concentration 2 of 4
[26] = Silver 5.0 μM, biocide concentration 3 of 4
[27] = Silver 5.0 μM, biocide concentration 4 of 4
[28] = Gold section of Table 5, first of three gold concentrations (μM, value not given), biocide concentration 4 of 4
[29] = Gold section of Table 5, second of three gold concentrations (μM, value not given), biocide concentration 3 of 4
[30] = Gold section of Table 5, second of three gold concentrations (μM, value not given), biocide concentration 4 of 4
[31] = Gold section of Table 5, third of three gold concentrations (μM, value not given), biocide concentration 2 of 4
[32] = Gold section of Table 5, third of three gold concentrations (μM, value not given), biocide concentration 4 of 4
[33] = 1st of 3 copper concentrations (value not shown), 4th of four biocide concentrations
[34] = 2nd of 3 copper concentrations (value not shown), 4th of four biocide concentrations
[35] = 3rd of 3 copper concentrations (value not shown), 4th of four biocide concentrations

NC(CO)C(=O)NO (racemic) [D,L-serine hydroxamate]
CDI (coefficient of drug interaction) [1]: 0.98
CDI (coefficient of drug interaction) [2]: 0.94
CDI (coefficient of drug interaction) [3]: 1.13
CDI (coefficient of drug interaction) [4]: Tox
CDI (coefficient of drug interaction) [5]: 0.77
CDI (coefficient of drug interaction) [6]: 0.78
CDI (coefficient of drug interaction) [7]: 1.03
CDI (coefficient of drug interaction) [8]: 3.47
CDI (coefficient of drug interaction) [9]: 0.62
CDI (coefficient of drug interaction) [10]: 0.66
CDI (coefficient of drug interaction) [11]: 1.18
CDI (coefficient of drug interaction) [12]: Tox
CDI (coefficient of drug interaction), gold + biocide (Gold (μM), first of 3 gold concentrations, biocide concentration 1 of 4): 1.04
CDI (coefficient of drug interaction), gold + biocide (Gold (μM), first of 3 gold concentrations, biocide concentration 2 of 4): 0.95
CDI (coefficient of drug interaction), gold + biocide (Gold (μM), first of 3 gold concentrations, biocide concentration 3 of 4): 1.45
CDI (coefficient of drug interaction), gold + biocide [13]: 0.71
CDI (coefficient of drug interaction), gold + biocide (Gold (μM), second of 3 gold concentrations, biocide concentration 1 of 4): 1.02
CDI (coefficient of drug interaction), gold + biocide (Gold (μM), second of 3 gold concentrations, biocide concentration 2 of 4): 1.00
CDI (coefficient of drug interaction), gold + biocide (Gold (μM), second of 3 gold concentrations, biocide concentration 3 of 4): 1.22
CDI (coefficient of drug interaction), gold + biocide [14]: Tox
CDI (coefficient of drug interaction), gold + biocide (Gold (μM), third of 3 gold concentrations, biocide concentration 1 of 4): 0.96
CDI (coefficient of drug interaction), gold + biocide (Gold (μM), third of 3 gold concentrations, biocide concentration 2 of 4): 0.94
CDI (coefficient of drug interaction), gold + biocide (Gold (μM), third of 3 gold concentrations, biocide concentration 3 of 4): 1.00
CDI (coefficient of drug interaction), gold + biocide [15]: Tox
CDI [16]: 0.90
CDI [17]: 0.66
CDI [18]: 0.31
CDI [19]: Tox
CDI [20]: 0.89
CDI [21]: 0.77
CDI [22]: 0.62
CDI [23]: Tox
CDI [24]: 0.82
CDI [25]: 0.61
CDI [26]: 0.53
CDI [27]: Tox

capreomycin
CDI (coefficient of drug interaction) [1]: 1.10
CDI (coefficient of drug interaction) [2]: 0.91
CDI (coefficient of drug interaction) [3]: 0.83
CDI (coefficient of drug interaction) [4]: 0.87
CDI (coefficient of drug interaction) [5]: 0.87
CDI (coefficient of drug interaction) [6]: 0.86
CDI (coefficient of drug interaction) [7]: 0.90
CDI (coefficient of drug interaction) [8]: Tox
CDI (coefficient of drug interaction) [9]: 0.86
CDI (coefficient of drug interaction) [10]: 0.57
CDI (coefficient of drug interaction) [11]: 0.49
CDI (coefficient of drug interaction) [12]: 0.60
CDI (coefficient of drug interaction) [28]: 1.03
CDI (coefficient of drug interaction) (Gold section of Table 5, second of three gold concentrations (μM, value not given), biocide concentration 1 of 4): 1.03
CDI (coefficient of drug interaction) [29]: 0.97
CDI (coefficient of drug interaction) [30]: 1.06
CDI (coefficient of drug interaction) (Gold section of Table 5, third of three gold concentrations (μM, value not given), biocide concentration 1 of 4): 1.00
CDI (coefficient of drug interaction) [31]: 0.98
CDI (coefficient of drug interaction) [32]: 1.14
CDI [16]: 0.95
CDI [17]: 0.92
CDI [18]: 0.96
CDI [19]: Tox
CDI [20]: 0.69
CDI [21]: 0.37
CDI [22]: 0.35
CDI [23]: Tox
CDI [24]: 0.41
CDI [25]: 0.11
CDI [26]: 0.02
CDI [27]: Tox

C[n+]1cc2c3c(ccc2c2ccc4cc5c(cc4c21)OCO5)OCO3 [sanguinarine]
CDI (coefficient of drug interaction), copper mixed with biocide [33]: Tox
CDI (coefficient of drug interaction), copper mixed with biocide (2nd of 3 copper concentrations (value not shown), 3rd of four biocide concentrations): Tox
CDI (coefficient of drug interaction), copper mixed with biocide [34]: Tox
CDI (coefficient of drug interaction), copper mixed with biocide [35]: Tox
CDI (coefficient of drug interaction) (Gold section of Table 5, first of three gold concentrations (μM, value not given), biocide concentration 3 of 4): Tox
CDI (coefficient of drug interaction) [28]: Tox
CDI (coefficient of drug interaction) [29]: Tox
CDI (coefficient of drug interaction) [30]: Tox
CDI (coefficient of drug interaction) (Gold section of Table 5, third of three gold concentrations (μM, value not given), biocide concentration 3 of 4): Tox
CDI (coefficient of drug interaction) [32]: Tox
CDI (coefficient of drug interaction), silver + biocide (Silver 0.5 μM, 3rd of four biocide concentrations, E. coli): Tox
CDI (coefficient of drug interaction), silver + biocide (Silver 0.5 μM, 4th of four biocide concentrations, E. coli): Tox
CDI (coefficient of drug interaction), silver + biocide (Silver 1.0 μM, 3rd of four biocide concentrations, E. coli): Tox
CDI (coefficient of drug interaction), silver + biocide (Silver 1.0 μM, 4th of four biocide concentrations, E. coli): Tox
CDI (coefficient of drug interaction), silver + biocide (Silver 5.0 μM, 3rd of four biocide concentrations, E. coli): Tox
CDI (coefficient of drug interaction), silver + biocide (Silver 5.0 μM, 4th of four biocide concentrations, E. coli): Tox

N[C@@H](CC(=O)NO)C(=O)O [L-Aspartic-β-hydroxamate]
CDI (coefficient of drug interaction), gold + biocide: 1.03 and 1.06 and 1.05 and 1.11 and 1.19 and 1.02 and 1.01

CN(C)S(=O)(=O)N(SC(F)(Cl)Cl)c1ccccc1 [dichlofluanid]
CDI (coefficient of drug interaction), copper mixed with biocide [33]: Tox
CDI (coefficient of drug interaction), copper mixed with biocide (2nd of 3 copper concentrations (value not shown), 1st of four biocide concentrations): Tox
CDI (coefficient of drug interaction), copper mixed with biocide [34]: Tox
CDI (coefficient of drug interaction), copper mixed with biocide [35]: Tox
CDI (coefficient of drug interaction) (Gold section of Table 5, first of three gold concentrations (μM, value not given), biocide concentration 2 of 4): Tox
CDI (coefficient of drug interaction) (Gold section of Table 5, second of three gold concentrations (μM, value not given), biocide concentration 2 of 4): Tox
CDI (coefficient of drug interaction) [31]: Tox
CDI (coefficient of drug interaction), silver + biocide (Silver 0.5 μM, 2nd of four biocide concentrations, E. coli): Tox
CDI (coefficient of drug interaction), silver + biocide (Silver 1.0 μM, 1st of four biocide concentrations, E. coli): Tox
CDI (coefficient of drug interaction), silver + biocide (Silver 1.0 μM, 2nd of four biocide concentrations, E. coli): Tox
CDI (coefficient of drug interaction), silver + biocide (Silver 5.0 μM, 1st of four biocide concentrations, E. coli): Tox
CDI (coefficient of drug interaction), silver + biocide (Silver 5.0 μM, 2nd of four biocide concentrations, E. coli): Tox

Cc1onc(-c2ccccc2)c1C(=O)N[C@@H]1C(=O)N2[C@@H]1SC(C)(C)[C@@H]2C(=O)O [oxacillin]
CDI (coefficient of drug interaction) [3]: Tox
CDI (coefficient of drug interaction) [4]: Tox
CDI (coefficient of drug interaction) [7]: Tox
CDI (coefficient of drug interaction) [8]: Tox
CDI (coefficient of drug interaction) [11]: Tox
CDI (coefficient of drug interaction) [12]: Tox
CDI (coefficient of drug interaction), gold + biocide [13]: Tox
CDI (coefficient of drug interaction), gold + biocide [14]: Tox
CDI (coefficient of drug interaction), gold + biocide [15]: Tox
CDI [18]: Tox
CDI [19]: Tox
CDI [22]: Tox
CDI [23]: Tox
CDI [26]: Tox
CDI [27]: Tox

O=c1ccc2ccccc2o1 [coumarin]
CDI (coefficient of drug interaction) (Gold 50 μM, biocide concentration 4 of 4, E. coli): Tox
